Experiment [1] can be described thus: Light production activators, luxS cqsA deficient V. cholerae strain, confirmatory dry powder (AID 651809). To be noted: V. cholerae BH1578 lux reporter, luminescence, 6 h; at 35 µM (top of the series).
Experiment [2] relates to V. cholerae BH1578 lux reporter, luminescence, 6 h. Described as above.

Structures are written as SMILES. Values joined by “and” are separate entries in the source; they are usually repeats but may differ in a detail not shown here. Equal entries are not always repeated. Active and inactive are the calls of the source. No rule for the calls is given here.

As to `CCc1ccc(C(=O)Nc2nnnn2CC)cc1`, the activation in experiment [1] is -0.042% (inactive).
The same measure, in the same setting: the figure for `CC(C)n1nnc(NCc2ccc(N3CCCC3)cc2)n1` is -0.029% (inactive); for `CCN(Cc1ccc(N2CCCC2)cc1)c1nnnn1CC` it is 1.22% (inactive); for `O=C(Cc1cccc(C(F)(F)F)c1)NC1CCCC1` it is 0.024% (inactive).
For `Cn1nnnc1NCc1ccc(N2CCCC2)cc1`, the AC40 in experiment [2] is 1030 nM.
`CN(Cc1ccc(N2CCCC2)cc1)c1nnn(C)n1`: the activation in experiment [1] was -0.005% (inactive).
Still for that read-out and setting: the figure for `O=C(Cc1ccc(-c2ccccc2)cc1)NCC1CCCC1` is 0.056% (inactive); for `O=C(Cc1ccc(F)cc1)NC1CCCC1` it is 0.012% (inactive).
As for `CCn1nnnc1NCc1ccc(C(F)(F)F)cc1`, the AC40 in experiment [2] is 17800 nM.
Regarding `CCn1nnc(NCc2ccc(C(C)C)cc2)n1`, in experiment [1], the activation was 0.061% (inactive).
On the same count and under the same terms, next, `Cn1nnc(NCc2ccccc2)n1`: -0.02% (inactive); `O=C(Cc1ccc(-c2ccncc2)cc1)NC1CCCC1`: 1.61% (inactive).
The same measure, in the same setting: next, `O=C(Cc1cccc(OC(F)(F)F)c1)NC1CCCC1`: 1.1% (inactive); `CC(C(=O)NC1CCCC1)c1ccc(-c2ccccc2)cc1` (stereo not given): -0.069% (inactive); `O=C(Cc1ccc(-c2ccccc2)cc1)NC1CCCCC1`: 10.4% (inactive).
Same read-out and setting: the figure for `O=C(Cc1ccc(-c2ccccc2)cc1)N1CCC(F)(F)CC1` is -0.007% (inactive); for `Cn1nnc(NCc2ccc(N3CCCC3)cc2)n1` it is 0.034% (inactive).
On to `O=C(Cc1ccc(-c2ccccn2)cc1)NC1CCCC1`, for which the AC40 in experiment [2] was 10500 nM.
For the molecule `O=C(Cc1ccc(-c2ccccc2)cc1)Nc1ccccc1`, in experiment [1], the activation is 0.038% (inactive).
`N#Cc1cccc(CC(=O)NC2CCCC2)c1`: the activation in experiment [1] is -0.04% (inactive).
Still for that read-out and setting: the figure for `O=C(CCc1ccc(-c2ccccc2)cc1)NC1CCCC1` is -0.057% (inactive).
Take `O=C(Cc1ccncc1)NC1CCCC1`: the activation in experiment [1] is 0.026% (inactive).
Same read-out and setting: next, `O=C(O)Cc1ccc(-c2ccccc2)cc1`: 0.008% (inactive).
Same read-out and setting: the figure for `CC(C)c1ccc(CNc2nn[nH]n2)cc1` is 0.032% (inactive); for `N#Cc1ccc(CC(=O)NC2CCCC2)cc1` it is -0.056% (inactive); for `Cn1nnnc1NCc1ccc(C(F)(F)F)cc1` it is 0.204% (inactive).
Consider `O=C(Cc1ccc(-c2cccnc2)cc1)NC1CCCC1`, for which, in experiment [1], the activation was 15.8% (inactive).
`O=C(Cc1ccc(-c2ccccc2)cc1)N1CCC1`: the activation in experiment [1] was 1.77% (inactive).
Still for that read-out and setting: next, `COc1ccc(CC(=O)NC2CCCC2)cc1`: 2.06% (inactive).
In the case of `CCn1nnnc1NCc1ccc(N2CCCC2)cc1`, in experiment [2], the AC40 was 149 nM and < 135 nM.
The same measure, in the same setting: next, `O=C(Nc1nnc(-c2ccc3c(c2)OCCO3)o1)C1CCCCC1`: 2290 nM.
`Cc1cccc(CC(=O)NC2CCCC2)c1`: the activation in experiment [1] was 0.44% (inactive).
In the case of `c1cc(N2CCCC2)ccc1CNc1nn[nH]n1`, the activation in experiment [1] is -0.038% (inactive).
For the molecule `CC(C)n1nnnc1NCc1ccc(N2CCCC2)cc1`, the activation in experiment [1] is 133% (inactive).
As to `CCn1nnnc1NCc1ccc(C(C)C)cc1`, the AC40 in experiment [2] is 187 nM.
For `CN(Cc1ccc(N2CCCC2)cc1)c1nnnn1C`, the activation in experiment [1] was 14.6% (inactive).
`CN1CCC(NC(=O)Cc2ccc(-c3ccccc3)cc2)CC1`: in experiment [1], the activation was 3.34% (inactive).
Consider `O=C(Cc1ccc(-c2ccccc2)cc1)NC1CCCC1`, for which the AC40 in experiment [2] was 890 nM and 645 nM.
On the same count and under the same terms, the figure for `CCNC(=O)Cc1ccc(-c2ccccc2)cc1` is > 35000 nM (inactive); for `O=C(Cc1ccc(-c2ccccc2)cc1)NC1CCC1` it is 499 nM.
In the case of `O=C(Cc1cccnc1)NC1CCCC1`, in experiment [1], the activation was -0.043% (inactive).
Regarding `O=C(Cc1ccc(-c2ccccc2)cc1)NC1CCNCC1`, the activation in experiment [1] is 0.085% (inactive).
The same measure, in the same setting: next, `FC(F)(F)c1ccc(CNc2nn[nH]n2)cc1`: -0.017% (inactive).
On the same count and under the same terms, the figure for `CCn1nnc(NCc2ccc(C(F)(F)F)cc2)n1` is -0.033% (inactive); for `CNC(=O)Cc1ccc(-c2ccccc2)cc1` it is 0.578% (inactive).
As for `O=C(Cc1ccccc1)NC1CCCC1`, in experiment [1], the activation was -0.05% (inactive).
Still for that read-out and setting: next, `CN1CCN(C(=O)Cc2ccc(-c3ccccc3)cc2)CC1`: -0.018% (inactive); `O=C(Cc1ccccc1Cl)NC1CCCC1`: 0.002% (inactive); `Cn1nnnc1NCc1ccccc1`: -0.011% (inactive).
On the same count and under the same terms, next, `O=C(Cc1ccc(-c2ccccc2)cc1)N1CCOCC1`: 0.215% (inactive).
For the molecule `CC(C)NC(=O)Cc1ccc(-c2ccccc2)cc1`, the AC40 in experiment [2] was 1900 nM.
On the same count and under the same terms, the figure for `CCC(CC)NC(=O)Cc1ccc(-c2ccccc2)cc1` is 4420 nM.
On to `c1ccc(CNc2nn[nH]n2)cc1`, for which, in experiment [1], the activation is 0.04% (inactive).
Still for that read-out and setting: the figure for `O=C(Cc1ccc(OC(F)(F)F)cc1)NC1CCCC1` is 1.25% (inactive); for `Cc1ccc(CC(=O)NC2CCCC2)cc1` it is 0.967% (inactive); for `CS(=O)(=O)c1cccc(CC(=O)NC2CCCC2)c1` it is 0.049% (inactive).
In the case of `CCn1nnnc1NCc1ccccc1`, the activation in experiment [1] was 0.115% (inactive).
On the same count and under the same terms, the figure for `CCn1nnnc1NC(=O)c1ccc(N2CCCC2)cc1` is 0.669% (inactive).
The same measure, in the same setting: next, `O=C(Cc1ccc(-c2ccccc2)cc1)N1CCCC1`: 0.018% (inactive).
Take `O=C(Cc1cccc(Cl)c1)NC1CCCC1`: the activation in experiment [1] was 0.144% (inactive).
Still for that read-out and setting: next, `O=C(Cc1ccc(-c2ccccc2)cc1)NCc1ccccc1`: 0.004% (inactive); `CN(C(=O)Cc1ccc(-c2ccccc2)cc1)C1CCCC1`: 0.648% (inactive).
Regarding `Cc1ccc2cc3c(NC(=O)c4ccco4)nn(C)c3nc2c1`, the AC40 in experiment [2] is 10400 nM.
On to `O=C(Cc1ccccc1C(F)(F)F)NC1CCCC1`, for which the activation in experiment [1] is 0.015% (inactive).
Turning to `c1ccc(-c2ccc(CCNC3CCCC3)cc2)cc1`, in experiment [1], the activation is -0.024% (inactive).
With `O=C(Cc1ccc(Cl)cc1)NC1CCCC1`, the activation in experiment [1] was 0.645% (inactive).
As for `O=C(Cc1ccc(-c2ccccc2)cc1)NC1CCOCC1`, the AC40 in experiment [2] is 5660 nM.
On to `O=C(Cc1ccccn1)NC1CCCC1`, for which the activation in experiment [1] was 0.07% (inactive).
Same read-out and setting: the figure for `COc1cccc(CC(=O)NC2CCCC2)c1` is -0.014% (inactive).
On the same count and under the same terms, the figure for `O=C(Cc1cccc(-c2ccccc2)c1)NC1CCCC1` is 18% (inactive); for `O=C(Cc1ccc(C(F)(F)F)cc1)NC1CCCC1` it is 0.008% (inactive).
Still for that read-out and setting: next, `O=C(Cc1ccc(-c2ccccc2)cc1)N1CC(F)(F)C1`: 1.11% (inactive); `O=C(NCc1ccc(-c2ccccc2)cc1)C1CCCC1`: 0.158% (inactive) and 0.134% (inactive); `COc1ccccc1CC(=O)NC1CCCC1`: 0.627% (inactive).
`O=C(Cc1ccc2ccccc2c1)NC1CCCC1`: the activation in experiment [1] was 1.41% (inactive).
The same measure, in the same setting: next, `O=C(Cc1cccc(F)c1)NC1CCCC1`: 0.009% (inactive).
Same read-out and setting: next, `CCn1nnc(NCc2ccc(N3CCCC3)cc2)n1`: -0.042% (inactive) and -0.061% (inactive).
Still for that read-out and setting: next, `O=C(Cc1ccccc1I)NC1CCCC1`: 0.012% (inactive); `O=C(NC1CCCC1)Oc1ccc(-c2ccccc2)cc1`: -0.045% (inactive).
Take `O=C(Cc1ccccc1-c1ccccc1)NC1CCCC1`: in experiment [1], the activation is -0.016% (inactive).
Same read-out and setting: next, `CCn1nnnc1NCc1cccn1C`: -0.015% (inactive); `O=C(Cc1ccccc1F)NC1CCCC1`: 0.011% (inactive).
Take `CC(C)c1ccc(CNc2nnnn2C)cc1`: the AC40 in experiment [2] is 4170 nM.
Turning to `CS(=O)(=O)c1ccc(CC(=O)NC2CCCC2)cc1`, in experiment [1], the activation was -0.009% (inactive).
The same measure, in the same setting: the figure for `CN(C)C(=O)Cc1ccc(-c2ccccc2)cc1` is 0.185% (inactive).
In the case of `CCCn1nnnc1NCc1ccc(C(C)C)cc1`, the AC40 in experiment [2] is 529 nM.
With `CCC(C)NC(=O)Cc1ccc(-c2ccccc2)cc1` (stereo not given), the AC40 in experiment [2] is 5160 nM.
For `O=C(Cc1ccccc1OC(F)(F)F)NC1CCCC1`, the activation in experiment [1] was 0.011% (inactive).
As to `CCn1nnc(NCc2ccccc2)n1`, in experiment [1], the activation is 0.35% (inactive).
On to `Cc1ccccc1CC(=O)NC1CCCC1`, for which, in experiment [2], the AC40 is 7560 nM.
In the case of `O=C(Cc1ccc(-c2ccccc2)cc1)N1CCCCC1`, in experiment [1], the activation was -0.022% (inactive).
As to `CC(C)c1ccc(CNc2nnn(C)n2)cc1`, in experiment [1], the activation was 0.033% (inactive).
Still for that read-out and setting: the figure for `CC(C)(C)OC(=O)N1CCC(NC(=O)Cc2ccc(-c3ccccc3)cc2)CC1` is -0.022% (inactive); for `Cn1nnc(NCc2ccc(C(F)(F)F)cc2)n1` it is 1.48% (inactive); for `O=C(Nc1ccc(-c2ccccc2)cc1)NC1CCCC1` it is 0.069% (inactive).

The values above are taken from PubChem BioAssay AID651809 (Broad Institute, 2012).
